Source: ChEMBL document CHEMBL1151271, “Phrygiasterol, a cytotoxic cyclopropane-containing polyhydroxysteroid, and related compounds from the pacific starfish Hippasteria phrygiana” (J Nat Prod, 2005)
In brackets after ≈: the same amount, converted by molar mass.

Columns and labels:
Type in all cases: functional, cell-based
Ehrlich = assay: Induction of apoptosis in mouse EAC assessed as early apoptotic cell by Hoechst and PI staining
Splenocyte = assay: Inhibition of calcium influx in mouse splenocytes
[1] = Cytotoxicity against mouse EAC; settings: Ehrlich

| EC50 (Ehrlich) | EC50 (Splenocyte) | SMILES | IC50 [1] |
| --- | --- | --- | --- |
| 70 µg/mL (≈ 117 µM) | 20 µg/mL (≈ 33.4 µM) | CO[C@@H]1[C@@H](O)[C@H](O[C@@H](CC[C@@H](C)[C@H]2C[C@H](O)[C@@H]3[C@]2(C)CC[C@@H]2[C@@]4(C)CC[C@H](O)C[C@@H]4[C@@H](O)C[C@]23O)C(C)C)OC[C@H]1O [BOREALOSIDE C] | – |
| – | – | C[C@H](CC[C@@H]1C[C@H]1CO)[C@H]1[C@@H](O)[C@H](O)[C@@H]2[C@]1(C)CC[C@@H]1[C@@]3(C)CC[C@H](O)C[C@@H]3[C@@H](O)C[C@]12O [PHRYGIASTEROL] | 50 µg/mL (≈ 107 µM) |
| 70 µg/mL | 20 µg/mL | CO[C@@H]1[C@@H](O)[C@H](O[C@@H](CC[C@@H](C)[C@H]2C[C@H](O)[C@@H]3[C@]2(C)CC[C@@H]2[C@@]4(C)CC[C@H](O)C[C@@H]4[C@@H](O)C[C@]23O)C(C)C)OC[C@H]1OS(=O)(=O)[O-].[Na+] [PHRYGIOSIDE B] | – |
